Test results: ChEMBL document CHEMBL1126384, “Synthesis of reversed hydroxamic acids of indomethacin: dual inhibitors of cyclooxygenase and 5-lipoxygenase” (Bioorg Med Chem Lett, 1992)

Experiments:
[1] = target: T1, Polyunsaturated fatty acid 5-lipoxygenase (Rattus norvegicus, UniProt P12527); experiment: Tested for inhibition of 5-Lipoxygenase (ARBL) in calcium-stimulated rat basophilic leukemia cells(RBL-1); format: cell-based
T1 sequence (P12527 whole entry): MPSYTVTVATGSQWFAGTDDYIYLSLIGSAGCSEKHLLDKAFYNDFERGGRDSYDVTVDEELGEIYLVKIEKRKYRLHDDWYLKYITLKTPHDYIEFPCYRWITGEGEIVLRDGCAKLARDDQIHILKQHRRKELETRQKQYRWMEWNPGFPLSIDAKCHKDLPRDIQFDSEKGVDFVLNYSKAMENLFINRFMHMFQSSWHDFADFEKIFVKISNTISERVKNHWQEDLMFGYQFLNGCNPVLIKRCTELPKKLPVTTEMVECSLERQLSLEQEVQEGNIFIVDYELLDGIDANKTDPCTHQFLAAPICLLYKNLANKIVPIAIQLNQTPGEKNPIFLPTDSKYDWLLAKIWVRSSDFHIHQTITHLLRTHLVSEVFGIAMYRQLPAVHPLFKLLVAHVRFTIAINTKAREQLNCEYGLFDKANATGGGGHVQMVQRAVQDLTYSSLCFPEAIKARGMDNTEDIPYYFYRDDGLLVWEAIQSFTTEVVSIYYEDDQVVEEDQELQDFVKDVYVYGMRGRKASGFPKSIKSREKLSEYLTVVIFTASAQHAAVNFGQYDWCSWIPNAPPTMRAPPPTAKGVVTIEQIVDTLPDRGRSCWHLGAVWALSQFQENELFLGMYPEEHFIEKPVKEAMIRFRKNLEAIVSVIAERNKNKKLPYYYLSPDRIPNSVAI

Cyclooxygenase = target: T2, Cyclooxygenase (Rattus norvegicus, UniProt P35355+Q63921); settings: rbl-1
T2 sequence (P35355 whole entry): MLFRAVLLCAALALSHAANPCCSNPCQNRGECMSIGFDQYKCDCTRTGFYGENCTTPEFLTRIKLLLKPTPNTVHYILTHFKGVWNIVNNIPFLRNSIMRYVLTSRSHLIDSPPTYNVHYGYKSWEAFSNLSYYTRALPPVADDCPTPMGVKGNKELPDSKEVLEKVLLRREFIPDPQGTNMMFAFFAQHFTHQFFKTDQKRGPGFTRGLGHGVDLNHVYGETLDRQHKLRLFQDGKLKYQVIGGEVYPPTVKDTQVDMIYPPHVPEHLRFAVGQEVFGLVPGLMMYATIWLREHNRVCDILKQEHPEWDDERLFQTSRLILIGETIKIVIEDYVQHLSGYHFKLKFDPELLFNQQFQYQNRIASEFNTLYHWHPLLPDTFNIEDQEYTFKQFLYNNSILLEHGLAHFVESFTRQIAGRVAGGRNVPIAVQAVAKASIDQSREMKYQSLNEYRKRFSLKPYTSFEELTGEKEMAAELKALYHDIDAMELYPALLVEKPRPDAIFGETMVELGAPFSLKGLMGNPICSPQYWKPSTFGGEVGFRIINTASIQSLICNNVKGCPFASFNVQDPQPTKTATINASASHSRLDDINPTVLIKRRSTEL
T2 sequence (Q63921 whole entry): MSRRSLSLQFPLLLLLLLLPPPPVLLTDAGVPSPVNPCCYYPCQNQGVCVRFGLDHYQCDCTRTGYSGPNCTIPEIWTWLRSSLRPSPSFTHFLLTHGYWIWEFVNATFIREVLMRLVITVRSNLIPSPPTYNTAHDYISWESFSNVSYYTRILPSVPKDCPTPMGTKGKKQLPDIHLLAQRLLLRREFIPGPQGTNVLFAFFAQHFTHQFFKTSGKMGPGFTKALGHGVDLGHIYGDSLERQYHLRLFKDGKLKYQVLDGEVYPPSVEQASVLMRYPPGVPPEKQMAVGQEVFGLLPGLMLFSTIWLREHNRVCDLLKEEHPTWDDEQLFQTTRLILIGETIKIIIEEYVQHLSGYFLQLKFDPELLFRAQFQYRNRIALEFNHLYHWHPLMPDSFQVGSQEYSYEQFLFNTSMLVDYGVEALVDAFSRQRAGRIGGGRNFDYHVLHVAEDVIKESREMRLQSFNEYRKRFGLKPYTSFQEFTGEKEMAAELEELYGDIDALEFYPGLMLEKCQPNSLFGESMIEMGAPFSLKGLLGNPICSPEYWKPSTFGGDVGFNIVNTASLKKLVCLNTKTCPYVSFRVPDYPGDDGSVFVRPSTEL
Description: Tested for inhibition of cyclooxygenase (ARBC) in calcium-stimulated rat basophilic leukemia cells(RBL-1)

Structure (SMILES)	IC50 [1]	IC50 (Cyclooxygenase)
CNC(=S)N(O)C(C)c1c(C)n(C(=O)c2ccc(Cl)cc2)c2ccc(OC)cc12 (configuration not stated)	570 nM	7000 nM
COc1ccc2c(c1)c(CN(O)C(N)=O)c(C)n2C(=O)c1ccc(Cl)cc1	340 nM	> 20000 nM
COc1ccc2c(c1)c(C(C)N(O)C(C)=O)c(C)n2C(=O)c1ccc(Cl)cc1 (configuration not stated)	830 nM	2400 nM
CNC(=S)N(O)Cc1c(C)n(C(=O)c2ccc(Cl)cc2)c2ccc(OC)cc12	–	7100 nM
COc1ccc2c(c1)c(CC(=O)O)c(C)n2C(=O)c1ccc(Cl)cc1 [INDOMETHACIN]	> 100000 nM	–
COc1ccc2c(c1)c(CN(O)C(C)=O)c(C)n2C(=O)c1ccc(Cl)cc1	1400 nM	15000 nM
COc1ccc2c(c1)c(C(C)N(O)C(N)=O)c(C)n2C(=O)c1ccc(Cl)cc1 (configuration not stated)	1400 nM	890 nM
